From EP2782585B1, “ANTIVIRAL FORMULATIONS” (3B Pharmaceuticals, Inc., priority 2011, dated 2013)

Tests used:
HSV-2 = test: In vitro assay for anti-HSV-2 mRNA activity (QuantiGene Plex 2.0 bDNA) in infected primary endothelial cells; type: cell-based, HSV type 2; settings: best-fit value, primary Adult Human Dermal Microvascular Endothelial Cells, overnight incubation; for IC50: Human alphaherpesvirus 2, Endothelial cell, HSV-2 mRNA; for LogIC50 / HillSlope: variable slope fit; for LogIC50: concentrations in µM
Method: (§1) In vitro assays for anti-HSV-1 and anti-HSV-2 mRNA activity are described in Example 1. Confluent Vero cell monolayers were infected with HSV type 1 or HSV type 2 at a multiplicity of infection of 10 and the resultant virus was used to infect primary Adult Human Dermal Microvascular Endothelial Cells for 1 hour; the supernatant was replaced with fresh culture media and then incubated overnight in the presence of various concentrations of acyclovir, 2-deoxy-D-glucose or an equimolar combination of the two compounds. After overnight incubation, the cells were harvested, lysed, and subjected to QuantiGene Plex 2.0 assay (Panomics, Inc., Fremont, CA) for quantitative assay of HSV-1 and HSV-2 mRNA. The QuantiGene Plex 2.0 assay combines branched DNA (bDNA) signal amplification and multi-analyte profiling beads (xMAP®) technologies to enable the detection and quantitation of multiple mRNA targets simultaneously. Briefly, confluent Vero cell monolayers were infected with HSV type 1 or HSV type 2 at a multiplicity of infection of 10 and the resultant virus was used to infect primary Adult Human Dermal Microvascular Endothelial Cells for 1 hour and then the supernatant was replaced with fresh culture media and then incubated overnight in the presence of various concentrations of acyclovir, 2-deoxy-D-glucose or an equimolar combination of the two compounds. Generally, this assay is considered to be a more sensitive and specific assay (bDNA) for the final readout when compared to an ELISA. The ELISA method while easier, can lack specificity to determine the difference between HSV1 and HSV2. The bDNA assay is a hybridization-based method of target-specific RNA quantitation that amplifies signal rather than target RNA, using labeled DNA probes. The QuantiGene Plex 2.0 system utilizes fluorescent microspheres (Capture Beads) as a support to capture specific RNA molecules. The ability to quantify multiple target-specific RNA molecules in a single sample lies in the design of the Probe Sets. For each RNA molecule of interest, an oligonucleotide Probe Set containing three types of synthetic probes, Capture Extenders (CEs), Label Extenders (LEs), and Blockers (BLs) that hybridize and span contiguous sequences of the target RNA, is provided. The CEs discriminate among the different Capture Beads within the bead array while capturing, via cooperative hybridization, the target RNA. Signal amplification is mediated by DNA amplification molecules that hybridize to the tails of the LEs. Each amplification unit contains multiple hybridization sites for biotinylated Label Probes that bind Streptavidin-conjugated R-Phycoerythrin (SAPE). The resulting fluorescence signal associated with individual Capture Beads is read on a Luminex flow cytometer. Signal is reported as median fluorescence intensity (MFI) and is proportional to the number of target RNA molecules present in the sample. All compounds were run in triplicate for each concentration. Concentrations are expressed in micromolar (µM) concentrations. The IC50 (the drug concentration that reduces the number of virally infected cells by 50%) were determined by plotting the reduction in fluorescence (RLU) versus the drug concentration using Graph Pad Prism software. Specifically, the variable slope model was used to calculate the IC50s with the formula "Y=Bottom + (Top-Bottom)/(1+10^((LogIC50-X)*HillSlope))" using Graph Pad Prism software. The data is shown graphically in Figures 1 and 2. The error bars represent the standard error of the mean (SEM). Table 1. IC50 of Acyclovir and/or 2-Deoxy-D-glucose against HSV-1. […]

HSV-1 = test: In vitro assay for anti-HSV-1 mRNA activity (QuantiGene Plex 2.0 bDNA) in infected primary endothelial cells; type: cell-based, HSV type 1; settings: best-fit value, primary Adult Human Dermal Microvascular Endothelial Cells, overnight incubation; for IC50: Human alphaherpesvirus 1, Endothelial cell, HSV-1 mRNA; for LogIC50 / HillSlope: variable slope fit; for LogIC50: concentrations in µM
Method: as §1

[1] = local application compared with oral; cited from earlier work

| IC50 (HSV-2) | IC50 (HSV-1) | Structure (SMILES) | LogIC50 (HSV-2) | HillSlope (HSV-2) | LogIC50 (HSV-1) | HillSlope (HSV-1) | drug concentration in the skin after local application versus given orally [1] |
| --- | --- | --- | --- | --- | --- | --- | --- |
| 8 µM | 20.9 µM | O=CC[C@@H](O)[C@H](O)[C@H](O)CO [2 Deoxy D glucose, 2-deoxy-D-glucose] | 0.9029 | -3.957 | 1.32 | -2.395 | – |
| 1.91 µM | 1.78 µM | Nc1nc2c(ncn2COCCO)c(=O)[nH]1 [Acyclovir, 9-(2-hydroxyethoxymethyl)guanine] | 0.2805 | -1.113 | 0.2509 | -1.108 | 2-3 times lower |
